20 compounds from patent publication US20260078130A1, “NAMPT MODULATORS, PREPARATIONS, AND USES THEREOF” (SIRONAX LTD., priority 2022, published 2026) can be followed below.

Molecules are shown by their SMILES. Read-outs that look alike come from different tables or passages of the source. Where only a bound is given, the exact number is not on record here.

The target in assay [1] is T1, human enzyme NAMPT (full length) (Homo sapiens, UniProt P43490).
T1 construct: human enzyme NAMPT (full length)
T1 sequence (P43490 whole entry): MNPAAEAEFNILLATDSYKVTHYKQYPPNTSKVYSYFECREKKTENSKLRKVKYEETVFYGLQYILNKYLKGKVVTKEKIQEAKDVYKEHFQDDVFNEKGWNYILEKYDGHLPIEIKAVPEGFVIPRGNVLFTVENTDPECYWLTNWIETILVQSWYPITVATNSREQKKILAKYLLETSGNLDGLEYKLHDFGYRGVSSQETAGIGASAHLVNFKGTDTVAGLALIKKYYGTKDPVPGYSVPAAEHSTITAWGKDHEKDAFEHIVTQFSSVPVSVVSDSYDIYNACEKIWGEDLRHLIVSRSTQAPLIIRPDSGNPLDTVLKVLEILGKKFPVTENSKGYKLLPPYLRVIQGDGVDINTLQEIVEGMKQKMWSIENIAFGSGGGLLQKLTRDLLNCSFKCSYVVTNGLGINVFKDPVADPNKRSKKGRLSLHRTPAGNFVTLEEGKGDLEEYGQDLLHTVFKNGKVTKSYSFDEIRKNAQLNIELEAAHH
As to the kind of experiment: NMN fluorescence biochemical assay (stimulation of NMN synthesis by NAMPT). The conditions noted are these: for EC50: concentration giving half-maximal activation, read-out: Enzymatic EC50; for Enzymatic Emax: fold change of maximal activation compared to DMSO. Put shortly: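 Full-length human NAMPT (100 nM) was preincubated 15 min at 37 °C with compound in 50 mM Tris-HCl pH 7.5, 10 mM MgCl2, 2 mM DTT, then reacted 1 h at 37 °C with 50 μM NAM, 100 μM PRPP, 4 mM ATP (stated solution concentrations). NMN was derivatised with acetophenone/KOH then formic acid and read at Ex/Em 382/445 nm; EC50 and Emax (fold over DMSO) reported.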

For assay [2], the system named is endogenous NAMPT in U2OS cells. Briefly: Cellular NAD+ modulation assay (NAD/NADH-Glo, U2OS cells). The assay is classed as cell-based. The settings on record: Homo sapiens; for maximal fold induction: read-out: Cellular Emax. As for the experimental part: Certain compounds described herein were also assayed for their ability to stimulate the endogenous NAMPT in a native cellular environment in a cellular NAD^+ modulation assay. U2OS cells were grown in McCoy's 5A medium with 10% fetal bovine serum, in a humidified incubator with an atmosphere of 95% air and 5% CO2 at 37° C. The assays were initiated by plating 30 μL of U2OS cells in a culture medium with 10% fetal bovine serum, at a density of 3000 cells per well in a Corning® 384-well White/Clear Bottom Polystyrene Microplate. The plates were incubated in 37T incubators for a period of 16 hours. Test compounds with a series of concentrations in DMSO were added to the plates in a volume of 150 nL using Echo Liquid handlers. The plates are then incubated for 24 hours. The medium was removed from the wells, then 10 μL PBS was added to each well. To each well of cells in 10 μL of PBS, 10 μL of base solution with 1% DTAB was added. The plate was briefly mixed on a plate shaker to ensure homogeneity and cell lysis (5 mins). 10p L of 0.4N HCl was added per well. The plate was coved, and all samples were incubated for 15 minutes at 60° C. Then the plate was equilibrated for 10 minutes at room temperature. 10 μL of 0.5M Trizma® base was added to each well of acid-treated cells to neutralize the acid. Finally, 30 μL of NAD/NADH-Glo™ Detection Reagent was added. The plate was gently shaken to mix the samples. The plate was incubated for 40 minutes at room temperature. Luminescence was recorded using a luminometer. The potency measurements for the test compounds were quantified and represented as EC50 (concentration of a compound that gives half-maximal activation) and Emax (fold change of a compound's maximal activation compared to DMSO).

[3] abbreviates: NMN fluorescence assay, purified human NAMPT 100 nM.
Setting [4] is: 24 hours incubation, cellular NAD+.
[5] abbreviates: NMN synthesis by purified human NAMPT (100 nM).
The mark [6] stands for this setting: 24 hours incubation with compound.

The term EC50 denotes the midpoint of the concentration-response curve. For `COc1cc(CN2C(=O)c3ccccc3C2Cc2c(Cl)cnn2C)on1` (centres unmarked) [Compound 593, 3-((4-chloro-1-methyl-1H-pyrazol-5-yl)methyl)-2-((3-methoxyisoxazol-5-yl)methyl)isoindolin-1-one], the EC50 in assay [1] (setting [3]) was not below 5 µM. In addition, the “Enzymatic Emax” value in assay [1] was “B (3≥B>2)”. In addition, in assay [2] (setting [4]), the EC50 lay within 0.5 to 5 µM and the maximal fold induction fell in the range of 1.2 to 1.5.

Regarding `CC1c2ccccc2C(=O)N1Cc1ccc(NC(=O)NCc2ccncc2)cc1` (centres unmarked) [Compound 291, 1-(4-((1-methyl-3-oxoisoindolin-2-yl)methyl)phenyl)-3-(pyridin-4-ylmethyl)urea], the EC50 in assay [1] (setting [5]) is less than 0.5 µM. The “Enzymatic Emax” value in assay [1] is listed as “C (2≥C)”. For the same compound, in assay [2] (setting [6]), the EC50 is less than 0.5 µM and the maximal fold induction was in the range of 1.2 to 1.5.

`O=C1c2ccccc2C(Cc2ccccn2)N1Cc1ccc2[nH]c(=O)oc2c1` (centres unmarked) [Compound 129, 6-((1-oxo-3-(pyridin-2-ylmethyl)isoindolin-2-yl)methyl)benzo[d]oxazol-2(3H)-one]: in assay [1] (setting [5]), the EC50 fell in the range of 0.5 to 5 µM. Moreover, in assay [1], the “Enzymatic Emax” value is on record as “A (A>3)”. Also, in assay [2] (setting [6]), the EC50 lay in the range of 0.5 to 5 µM and the maximal fold induction was more than 1.5.

`N#Cc1ccccc1CC1c2ccccc2C(=O)N1Cc1ccc(O)cc1` (centres unmarked) [Compound 169, 2-((2-(4-hydroxybenzyl)-3-oxoisoindolin-1-yl)methyl)benzonitrile]: the EC50 in assay [1] (setting [5]) was less than 0.5 µM. Also, the “Enzymatic Emax” value in assay [1] is reported as “B (3≥B>2)”. For the same compound, in assay [2] (setting [6]), the EC50 is less than 0.5 µM and the maximal fold induction is more than 1.5.

On to `CC1c2ccccc2C(=O)N1Cc1ccc2[nH]nnc2c1` (centres unmarked) [Compound 44, 2-((1H-benzo[d][1,2,3]triazol-5-yl)methyl)-3-methylisoindolin-1-one], for which the EC50 in assay [1] (setting [5]) is not below 5 µM. For the same compound, the “Enzymatic Emax” value in assay [1] is “B (3≥B>2)”. For the same compound, in assay [2] (setting [6]), the EC50 fell in the range of 5 to 50 µM and the maximal fold induction lay within 1.2 to 1.5.

On to `Cn1ncc(Cl)c1CC1c2ccccc2C(=O)N1C[C@]1(F)C[C@@]2(CNC(=O)O2)C1` (some centres unmarked) [Compound 487, (2r,4r)-2-((1-((4-chloro-1-methyl-1H-pyrazol-5-yl)methyl)-3-oxoisoindolin-2-yl)methyl)-2-fluoro-5-oxa-7-azaspiro[3.4]octan-6-one], for which the EC50 in assay [1] (setting [3]) was 0.5 to 5 µM. The “Enzymatic Emax” value in assay [1] is listed as “B (3≥B>2)”. In addition, in assay [2] (setting [4]), the EC50 was less than 0.5 µM and the maximal fold induction is more than 1.5.

Take `COc1ccc(CN2C(=O)c3ccccc3C2Cc2ncccc2Br)cn1` (centres unmarked) [Compound 513, 3-((3-bromopyridin-2-yl)methyl)-2-((6-methoxypyridin-3-yl)methyl)isoindolin-1-one]: the EC50 in assay [1] (setting [3]) was 0.5 to 5 µM. The “Enzymatic Emax” value in assay [1] is given as “B (3≥B>2)”. In assay [2] (setting [4]), the concentration giving a half-maximal response (EC50) fell in the range of 0.5 to 5 µM and the maximal fold induction was more than 1.5.

Turning to `NC(=O)Nc1ccc(CN2Cc3ccccc3C2=O)cc1` [Compound 293, 1-(4-((1-oxoisoindolin-2-yl)methyl)phenyl)urea], the EC50 in assay [1] (setting [5]) is less than 0.5 µM. Also, in assay [1], the “Enzymatic Emax” value was “C (2≥C)”. Moreover, in assay [2] (setting [6]), the EC50 is 5 to 50 µM and the maximal fold induction is more than 1.5.

With `N#Cc1cncc(C#N)c1CC1c2ccccc2C(=O)N1Cc1ccc2[nH]nnc2c1` (centres unmarked) [Compound 351, 4-((2-((1H-benzo[d][1,2,3]triazol-5-yl)methyl)-3-oxoisoindolin-1-yl)methyl)pyridine-3,5-dicarbonitrile], the EC50 in assay [1] (setting [3]) and in assay [2] (setting [4]) was less than 0.5 µM each time. The “Enzymatic Emax” value in assay [1] was “A (A>3)”. The maximal fold induction in assay [2] (setting [4]) was more than 1.5.

Take `CC1(C)c2ccccc2C(=O)N1Cc1ccc2[nH]c(=O)oc2c1` [Compound 52, 6-((1,1-dimethyl-3-oxoisoindolin-2-yl)methyl) benzo[d]oxazol-2(3H)-one]: the 50% effective concentration (EC50) in assay [1] (setting [5]) is not below 5 µM. Further, the “Enzymatic Emax” value in assay [1] is “B (3≥B>2)”. In assay [2] (setting [6]), the EC50 was 0.5 to 5 µM and the maximal fold induction is more than 1.5.

On to `Cc1ccc(C#N)c(CC2c3ccccc3C(=O)N2Cc2ccc3[nH]c(=O)oc3c2)c1` (centres unmarked) [Compound 164, 4-methyl-2-((3-oxo-2-((2-oxo-2,3-dihydrobenzo[d]oxazol-6-yl)methyl)isoindolin-1-yl)methyl)benzonitrile], for which the EC50 in assay [1] (setting [5]) was less than 0.5 µM. Also, the “Enzymatic Emax” value in assay [1] is on record as “B (3≥B>2)”. In assay [2] (setting [6]), the EC50 was less than 0.5 µM and the maximal fold induction is more than 1.5.

With `O=C1c2ccccc2C(Cc2ncccc2Br)N1Cc1ccc(O)cn1` (centres unmarked) [Compound 267, 3-((3-bromopyridin-2-yl)methyl)-2-((5-hydroxypyridin-2-yl)methyl)isoindolin-1-one], the EC50 in assay [1] (setting [5]) lay in the range of 0.5 to 5 µM. Further, the “Enzymatic Emax” value in assay [1] was “A (A>3)”.

Regarding `O=C1c2ccccc2C(C(F)(F)c2ccccc2)N1Cc1ccc2[nH]c(=O)oc2c1` (centres unmarked) [Compound 306, 6-((1-(difluoro(phenyl)methyl)-3-oxoisoindolin-2-yl)methyl)benzo[d]oxazol-2(3H)-one], in assay [1] (setting [5]), the EC50 was not below 5 µM. For the same compound, in assay [1], the “Enzymatic Emax” value is listed as “C (2≥C)”.

Regarding `O=C1c2ccccc2C(Cc2ncccc2Br)N1CC1CC2(CC(O)C2)C1` (centres unmarked) [Compound 321, 3-((3-bromopyridin-2-yl)methyl)-2-((6-hydroxyspiro[3.3]heptan-2-yl)methyl) isoindolin-1-one], the EC50 in assay [1] (setting [3]) was in the range of 0.5 to 5 µM. The “Enzymatic Emax” value in assay [1] is listed as “B (3≥B>2)”.

Take `Cc1conc1CC1c2ccccc2C(=O)N1Cc1ccc2[nH]c(=O)oc2c1` (centres unmarked) [Compound 248, 6-((1-((4-methylisoxazol-3-yl)methyl)-3-oxoisoindolin-2-yl)methyl)benzo[d]oxazol-2(3H)-one]: the EC50 in assay [1] (setting [5]) lay within 0.5 to 5 µM. Moreover, the “Enzymatic Emax” value in assay [1] was “A (A>3)”.

In the case of `Cn1c(CC2c3ccccc3C(=O)N2CC2CC3(CNC(=O)O3)C2)cccc1=O` (centres unmarked) [Compound 494, 2-((1-((1-methyl-6-oxo-1,6-dihydropyridin-2-yl)methyl)-3-oxoisoindolin-2-yl)methyl)-5-oxa-7-azaspiro[3.4]octan-6-one], the EC50 in assay [1] (setting [3]) is not below 5 µM. Also, in assay [1], the “Enzymatic Emax” value is “C (2≥C)”.

As for `Cn1ncc(Cl)c1CC1c2ccccc2C(=O)N1CCc1ccc(=O)[nH]c1` (centres unmarked) [Compound 636, 3-((4-chloro-1-methyl-1H-pyrazol-5-yl)methyl)-2-(2-(6-oxo-1,6-dihydropyridin-3-yl)ethyl)isoindolin-1-one], in assay [1] (setting [3]), the EC50 was not below 5 µM. Besides, the “Enzymatic Emax” value in assay [1] was “C (2≥C)”.

On to `Cn1cc(C#CCN2C(=O)c3ccccc3C2Cc2c(Cl)cnn2C)cn1` (centres unmarked) [Compound 501, 3-((4-chloro-1-methyl-1H-pyrazol-5-yl)methyl)-2-(3-(1-methyl-1H-pyrazol-4-yl)prop-2-yn-1-yl)isoindolin-1-one], for which the EC50 in assay [1] (setting [3]) was 0.5 to 5 µM. The “Enzymatic Emax” value in assay [1] was “C (2≥C)”.

For the compound `Cc1onc(C#N)c1C(O)C1c2ccccc2C(=O)N1Cc1ccc2[nH]nnc2c1` (centres unmarked) [Compound 374, 4-((2-((1H-benzo[d][1,2,3]triazol-5-yl)methyl)-3-oxoisoindolin-1-yl)(hydroxy)methyl)-5-methylisoxazole-3-carbonitrile], in assay [1] (setting [3]), the EC50 was in the range of 0.5 to 5 µM. Moreover, the “Enzymatic Emax” value in assay [1] is “B (3≥B>2)”.

Regarding `CCn1c2ccccc2c(=O)n1Cc1ccc(O)cc1` [Compound 24, 1-ethyl-2-(4-hydroxybenzyl)-1,2-dihydro-3H-indazol-3-one], the EC50 in assay [1] (setting [5]) was not below 5 µM. Also, the “Enzymatic Emax” value in assay [1] is “A (A>3)”.
